Where no end group is shown, it is not given here.
Experiments:
Experiment in all cases: biochemical
Assay type in all cases: binding
[1] = target: T1, DRB1*0101 (Homo sapiens, UniProt P01903+P01911, A100R/D57E/F55L/F60I/F76Y/I96L/L162R/M171V/P40L/Q125E/R42F/V115G/Y59C); conditions: IC50 nM to purified HLA DRB1*0101
T1 construct: made in house; host or cells: EBV-transformed homozygous human B cell lines, transfected fibroblasts or single-allele 721.221 transfectants

[2] = target: T2, DRB1*0401 (Homo sapiens, UniProt P01903+P01911, A100K/A169T/F76Y/I96L/K127E/L162R/M171V/N62H/P40V/Q125Y/R42H/S133A/S149N/S66Y/V115G/V209L/W38E); conditions: read-out: IC50 nM to purified HLA DRB1*0401
T2 construct: made in house; host or cells: EBV-transformed homozygous human B cell lines, transfected fibroblasts or single-allele 721.221 transfectants

[3] = target: DRB1*1302 (Homo sapiens, UniProt P01903+P01911, A100E/A169T/K41T/L162R/M171V/P40S/Q125H/Q178H/Q39Y/Q99D/R42S/S66N/T262R/V115G/W38E/Y61H); conditions: read-out: IC50 nM to purified HLA DRB1*1302
[4] = target: T3, DRB1*1501 (Homo sapiens, UniProt P01903+P01911); conditions: read-out: IC50 nM to purified HLA DRB1*1501
T3 construct: made in house; host or cells: EBV-transformed homozygous human B cell lines, transfected fibroblasts or single-allele 721.221 transfectants

[5] = target: T4, DRB1*0301 (Homo sapiens, UniProt P01903+P01911, A100K/A102G/A103R/A169T/F55Y/I96L/K41T/L162R/M171V/P40S/Q125H/Q178H/Q39Y/R42S/S66N/T106N/T262R/W38E/Y61H)
T4 construct: made in house; host or cells: EBV-transformed homozygous human B cell lines, transfected fibroblasts or single-allele 721.221 transfectants
T4 sequence (P01903 26-254, other chains not shown): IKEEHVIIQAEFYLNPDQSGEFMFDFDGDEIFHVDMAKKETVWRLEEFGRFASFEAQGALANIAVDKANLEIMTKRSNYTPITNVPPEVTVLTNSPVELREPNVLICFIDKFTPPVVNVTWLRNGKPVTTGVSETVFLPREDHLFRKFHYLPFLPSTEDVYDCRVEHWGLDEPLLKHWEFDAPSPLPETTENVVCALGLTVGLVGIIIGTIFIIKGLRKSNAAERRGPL

DRB1*1302, sequence (P01903 26-254 limits assumed, other chains not shown): as the sequence (P01903 26-254, other chains not shown) above

| Compound | IC50 [1] | IC50 [2] | IC50 [3] | IC50 [4] | IC50 [5] |
| --- | --- | --- | --- | --- | --- |
| CC(C)C[C@H](NC(=O)[C@H](C)NC(=O)CNC(=O)[C@H](CCC(N)=O)NC(=O)[C@@H](NC(=O)[C@H](CC(C)C)NC(=O)[C@H](Cc1ccccc1)NC(=O)[C@H](Cc1ccccc1)NC(=O)[C@@H](NC(=O)[C@@H](N)CCCNC(=N)N)[C@@H](C)O)[C@@H](C)O)C(=O)N[C@@H](CC(C)C)C(=O)N[C@@H](CC(N)=O)C(=O)N[C@@H](CC(=O)O)C(=O)N[C@@H](CCCCN)C(=O)N[C@@H](Cc1c[nH]cn1)C(=O)N[C@@H](CO)C(=O)O [Flu.NA.110] | 16 nM | 251 nM | 3210 nM | 790 nM |  |
| CC[C@H](C)[C@H](NC(=O)[C@@H](N)CC(C)C)C(=O)N[C@@H](CC(=O)O)C(=O)N[C@@H](Cc1ccccc1)C(=O)N[C@@H](CC(C)C)C(=O)N[C@@H](CCCCN)C(=O)N[C@@H](CC(=O)O)C(=O)N[C@H](C(=O)N[C@@H](CCSC)C(=O)N[C@@H](CCC(=O)O)C(=O)N[C@@H](CO)C(=O)N[C@@H](CCSC)C(=O)N[C@@H](CC(=O)O)C(=O)N[C@@H](CCCCN)C(=O)N[C@@H](CCC(=O)O)C(=O)O)C(C)C [Flu.PB1.166] |  |  |  |  | 120 nM |
| CC[C@H](C)[C@H](NC(=O)[C@H](CC(C)C)NC(=O)[C@H](CCSC)NC(=O)[C@H](CC(C)C)NC(=O)[C@H](Cc1c[nH]c2ccccc12)NC(=O)[C@H](CC(=O)O)NC(=O)[C@H](CCCNC(=N)N)NC(=O)[C@H](CO)NC(=O)[C@H](CCSC)NC(=O)[C@H](CCC(=O)O)NC(=O)[C@H](CCC(=O)O)NC(=O)[C@@H](N)CC(C)C)C(=O)N1CCC[C@H]1C(=O)N[C@@H](CCCCN)C(=O)N[C@@H](CCC(N)=O)C(=O)O [Flu.NS1.98] |  |  |  |  | 170 nM |
| CC[C@H](C)[C@H](NC(=O)[C@H](CC(C)C)NC(=O)[C@@H](NC(=O)[C@H](CCC(=O)O)NC(=O)[C@H](CC(C)C)NC(=O)[C@H](CCCNC(=N)N)NC(=O)[C@H](CC(=O)O)NC(=O)[C@H](Cc1ccccc1)NC(=O)[C@@H](NC(=O)[C@@H](NC(=O)[C@H](CO)NC(=O)[C@H](Cc1ccccc1)NC(=O)[C@@H](N)CC(N)=O)C(C)C)[C@@H](C)CC)[C@@H](C)O)C(=O)N[C@@H](CC(C)C)C(=O)N[C@@H](CC(C)C)C(=O)O [Flu.NS1.136] | 17 nM |  |  | 6930 nM |  |
| CC[C@H](C)[C@H](NC(=O)[C@H](CC(C)C)NC(=O)[C@H](CC(=O)O)NC(=O)[C@H](CC(=O)O)NC(=O)[C@H](CCCCN)NC(=O)[C@H](CC(C)C)NC(=O)CNC(=O)[C@H](C)NC(=O)[C@@H](N)CO)C(=O)N[C@@H](CCC(=O)O)C(=O)N[C@@H](CC(N)=O)C(=O)N[C@@H](CC(C)C)C(=O)N[C@@H](CCC(N)=O)C(=O)N[C@@H](C)C(=O)N[C@@H](Cc1ccc(O)cc1)C(=O)O [Flu.M1.229] |  |  |  |  | 64 nM |
| CEQIADSQHRSHRQM [Flu.M1.154] |  |  |  |  | 804 nM |
| TRPILSPLTKGILGF [Flu.M1.51] | 423 nM |  | 292 nM | 140 nM |  |
| CSCC[C@H](NC(=O)[C@H](CCCCN)NC(=O)[C@H](CO)NC(=O)[C@@H](N)C(C)C)C(=O)NCC(=O)N[C@H](C(=O)N[C@@H](CC(=O)O)C(=O)N[C@@H](CCC(=O)O)C(=O)N[C@@H](Cc1ccc(O)cc1)C(=O)N[C@@H](CO)C(=O)N[C@@H](CO)C(=O)N[C@H](C(=O)N[C@@H](CCC(=O)O)C(=O)N[C@@H](CCCNC(=N)N)C(=O)N[C@H](C(=O)O)C(C)C)[C@@H](C)O)C(C)C [Flu.PB2.483] |  |  | 1850 nM |  | 1020 nM |
| CC[C@H](C)[C@H](NC(=O)[C@H](CC(C)C)NC(=O)[C@H](Cc1c[nH]c2ccccc12)NC(=O)[C@@H](NC(=O)[C@@H](NC(=O)[C@H](CC(N)=O)NC(=O)[C@H](CCCNC(=N)N)NC(=O)[C@H](Cc1ccccc1)NC(=O)[C@H](Cc1ccccc1)NC(=O)[C@H](CO)NC(=O)[C@H](CO)NC(=O)[C@@H](N)CCCCN)C(C)C)C(C)C)C(=O)N[C@@H](CCCCN)C(=O)N[C@@H](CCCCN)C(=O)N[C@@H](CC(N)=O)C(=O)O [Flu.HA.156] | 46 nM | 474 nM | 20 nM | 832 nM |  |
| CC[C@H](C)[C@H](NC(=O)[C@H](CC(N)=O)NC(=O)[C@H](CC(N)=O)NC(=O)[C@H](CCCNC(=N)N)NC(=O)[C@H](Cc1c[nH]c2ccccc12)NC(=O)[C@H](CO)NC(=O)[C@H](CCCCN)NC(=O)[C@@H](NC(=O)[C@@H](NC(=O)[C@H](CC(=O)O)NC(=O)[C@@H](NC(=O)[C@@H](NC(=O)[C@@H](NC(=O)CNC(=O)[C@H](CC(N)=O)NC(=O)[C@@H](N)Cc1ccc(O)cc1)[C@@H](C)CC)[C@@H](C)CC)[C@@H](C)O)[C@@H](C)O)[C@@H](C)CC)C(=O)O [Flu.NA.188] |  |  | 370 nM | 31 nM |  |
| MEWLKTRPILSPLTK [Flu.M1.46] | 52 nM | 528 nM | 3870 nM | 111 nM |  |
| CSCC[C@H](NC(=O)[C@H](CC(C)C)NC(=O)[C@@H](NC(=O)[C@H](CC(C)C)NC(=O)[C@@H](N)CC(C)C)C(C)C)C(=O)N[C@@H](CCC(=O)O)C(=O)N[C@@H](CC(N)=O)C(=O)N[C@@H](CCC(=O)O)C(=O)N[C@@H](CCCNC(=N)N)C(=O)N[C@H](C(=O)N[C@@H](CC(C)C)C(=O)N[C@@H](CC(=O)O)C(=O)N[C@@H](Cc1ccccc1)C(=O)N[C@@H](Cc1c[nH]cn1)C(=O)N[C@@H](CC(=O)O)C(=O)O)[C@@H](C)O [Flu.HA.444] |  |  |  |  | 64 nM |
| CC[C@H](C)[C@H](NC(=O)[C@H](CCCNC(=N)N)NC(=O)[C@H](CCCCN)NC(=O)[C@@H](NC(=O)[C@H](C)NC(=O)[C@@H](NC(=O)[C@H](CCC(N)=O)NC(=O)[C@H](CO)NC(=O)[C@H](CC(=O)O)NC(=O)[C@@H](NC(=O)[C@H](CC(C)C)NC(=O)[C@@H](NC(=O)[C@H](CO)NC(=O)[C@H](CO)NC(=O)[C@@H](N)CC(=O)O)[C@@H](C)CC)[C@@H](C)O)[C@@H](C)O)[C@@H](C)O)C(=O)O [Flu.PB2.743] |  |  |  |  | 36 nM |
| CC[C@H](C)[C@H](NC(=O)[C@H](Cc1ccc(O)cc1)NC(=O)[C@@H](NC(=O)[C@@H](NC(=O)[C@@H]1CCCN1)[C@@H](C)O)[C@@H](C)O)C(=O)N[C@@H](CO)C(=O)N[C@H](C(=O)NCC(=O)N[C@H](C(=O)N[C@@H](CO)C(=O)N[C@H](C(=O)N[C@@H](CC(C)C)C(=O)N[C@@H](CC(N)=O)C(=O)N[C@@H](CCC(N)=O)C(=O)N[C@@H](CCCNC(=N)N)C(=O)N[C@@H](CC(C)C)C(=O)O)[C@@H](C)O)[C@@H](C)O)C(C)C [Flu.HA.210] | 190 nM | 59 nM | 957 nM |  |  |
| CC[C@H](C)[C@H](NC(=O)CNC(=O)[C@H](CC(N)=O)NC(=O)[C@H](Cc1ccc(O)cc1)NC(=O)[C@H](CCCCN)NC(=O)[C@H](CC(C)C)NC(=O)[C@@H](NC(=O)[C@H](C)NC(=O)[C@@H](N)C(C)C)C(C)C)C(=O)N[C@H](C(=O)N[C@H](C(=O)N[C@@H](CC(=O)O)C(=O)N[C@H](C(=O)N[C@H](C(=O)N[C@@H](CCCCN)C(=O)N[C@@H](CO)C(=O)N[C@@H](Cc1c[nH]c2ccccc12)C(=O)O)[C@@H](C)CC)[C@@H](C)O)[C@@H](C)O)[C@@H](C)CC [Flu.NA.183] | 3390 nM | 319 nM |  | 19 nM |  |
| CC[C@H](C)[C@H](N)C(=O)NCC(=O)N[C@@H](CC(N)=O)C(=O)N[C@@H](CCSC)C(=O)N[C@H](C(=O)N[C@@H](CO)C(=O)N[C@H](C(=O)N[C@@H](Cc1c[nH]c2ccccc12)C(=O)N[C@H](C(=O)N[C@@H](CO)C(=O)N[C@@H](Cc1c[nH]cn1)C(=O)N[C@@H](CO)C(=O)N[C@H](C(=O)N[C@@H](Cc1c[nH]cn1)C(=O)N[C@H](C(=O)NCC(=O)O)[C@@H](C)O)[C@@H](C)CC)C(C)C)[C@@H](C)CC)[C@@H](C)CC [Flu.NA.26] | 1050 nM |  | 5950 nM | 81 nM |  |
| CC(C)C[C@H](NC(=O)[C@H](CO)NC(=O)[C@H](CCCCN)NC(=O)[C@H](CCC(N)=O)NC(=O)[C@H](CC(=O)O)NC(=O)[C@H](CCCNC(=N)N)NC(=O)[C@H](CCCNC(=N)N)NC(=O)[C@H](CC(C)C)NC(=O)[C@H](CCCNC(=N)N)NC(=O)[C@H](CC(=O)O)NC(=O)[C@@H](N)CC(C)C)C(=O)N[C@@H](CCCNC(=N)N)C(=O)NCC(=O)N[C@@H](CCCNC(=N)N)C(=O)NCC(=O)O [Flu.NS1.36] | 800 nM |  |  |  | 83 nM |
| CC(C)C[C@H](NC(=O)[C@H](CCCCN)NC(=O)[C@@H](NC(=O)[C@H](CO)NC(=O)[C@H](C)NC(=O)[C@@H](NC(=O)[C@H](C)NC(=O)[C@H](CCCCN)NC(=O)[C@H](CCC(=O)O)NC(=O)[C@@H](NC(=O)[C@H](CC(C)C)NC(=O)[C@H](Cc1ccccc1)NC(=O)[C@H](CC(N)=O)NC(=O)[C@@H](NC(=O)[C@@H](N)CC(N)=O)[C@@H](C)O)[C@@H](C)O)C(C)C)C(C)C)C(=O)N[C@@H](C)C(=O)O [Flu.NA.51] |  |  |  | 47 nM |  |
| CC[C@H](C)[C@H](NC(=O)[C@H](Cc1ccc(O)cc1)NC(=O)[C@@H](NC(=O)[C@@H](NC(=O)[C@@H]1CCCN1C(=O)[C@H](CC(N)=O)NC(=O)[C@H](CCC(N)=O)NC(=O)[C@H](Cc1ccc(O)cc1)NC(=O)[C@H](CC(C)C)NC(=O)[C@H](CCCCN)NC(=O)[C@@H](NC(=O)[C@@H](N)CCC(N)=O)[C@@H](C)O)[C@@H](C)O)[C@@H](C)O)C(=O)N[C@@H](CO)C(=O)N[C@H](C(=O)NCC(=O)N[C@H](C(=O)O)[C@@H](C)O)C(C)C [Flu.HA.203] |  |  | 18 nM | 60 nM |  |
